Experimental data: patent US20100273656A1, “COMPOSITION AND METHOD FOR SELECTIVE HERBICIDE” (priority 2002, published 2010)

Legend:
perennial ryegrass [1] = assay: Example 21 Fe chelates with Killex, perennial ryegrass; type: in vivo; conditions: A29 = 29 days after treatment
Experimental: (§1) Plants were fertilized with an all purpose water-soluble fertilizer mix of 20-20-20 (N-P-K; Plant-Prod®) as needed. All broadleaf weeds were grown individually in a 2¼-inch pot until they were a suitable size for herbicide tests (actual weed size is reported in examples below). Perennial ryegrass was also grown in 2¼-inch pots, however many grass seeds were sown in the pot to simulate a small section of turf. Grass plants were continually trimmed to a height of 4 cm, simulating that of a homeowner's lawn. For field tests, plots ¼ m^2 in size were marked out in areas containing the targeted broadleaf weed species growing in turf grass. Plots were continually mowed to simulate a homeowner's lawn. […] In all of the examples, the amounts of the various herbicide components are identified as a percent on a weight basis.
(§2) Killex® (Scotts Canada, Ltd., Ontario, Canada) is a commonly used selective lawn herbicide and was used as the commercial herbicide for herbicide combinations. The labeled dilution and application rates for Killex® are 6 ml into 1 L of solution (0.6%) applied at 200 ml/m^2.
(§3) All visual plant damage assessments were made using a quantitative rating scale; percent control relative to the untreated check (0=no effect; 100=plant death).
Materials and Methods: This trial was conducted in the greenhouse. […] Phytotoxicity (%) was assessed 29 days after treatment (A29).

[2] = tested on: hairy cat's ear (Hypochoeris radicata); assay: Example 13 field test, hairy cat's ear; type: in vivo
Experimental: Killex® (Green Cross, Ontario, Canada) is a commonly used selective lawn herbicide and was included in several field tests as a standard. Killex contains 2,4-D (9.5%), mecoprop (5%) and dicamba (0.9%). The product was diluted 6 ml into 1 L of water solution and applied at rate of 200 ml/m^2, as per label instructions.
This test evaluated FeEDDS (0.4% Fe^+3) and FeHEDTA (0.2% Fe^+3) for controlling the weed hairy cat's ear (Hypochoeris radicata), also known as “false dandelion”, grown in areas of mixed grass and Hypochoeris. The iron solutions were sprayed at a rate of 100 ml/m^2 to 1.0 m^2 plots. The iron treatments were resprayed after 7 and 14 days. Killex (Solaris ON, Canada) was diluted and applied once as per label instructions of 6 ml /L applied at 200 ml/m^2.

white clover [3] = assay: Example 22 field test FeIDS and/or FeHEDTA with Killex, white clover; type: in vivo; conditions: A7 = 7 days after treatment
Experimental: as §1, with “basis. […]” for “basis.”
as §3
(§4) Materials and Methods: Plots ¼ m^2 in size were marked out in white clover and Park Lawn (turfgrass mixture comprising of 65% perennial ryegrass, 25% chewings/creeping red fescue and 10% Kentucky bluegrass) area in the field. […] Phytotoxicity (%) was assessed on 7 days after treatment (A7).

white clover [4] = assay: Example 18 FeHEDTA with Killex, white clover; type: in vivo
Experimental: as §1, §2, §3
(§5) Materials and Methods: This trial was conducted in the greenhouse. Nine pots of white clover and 10 pots of perennial ryegrass were selected for each treatment. Herbicide solutions were prepared using deionized water. The treatments were applied using a hand-trigger sprayer at 200 ml/m^2. All treatments were applied once. Phytotoxicity (%) was assessed 4, 7, and 14 days after application (A4, A7, and A14).

perennial ryegrass [5] = assay: Example 19 FeHEDTA with Killex at reduced rates, perennial ryegrass; type: in vivo; conditions: Killex ® 0%, 7 days after application
Experimental: as §1, §2, §3
as §5, with “Ten broadleaf plantain plants” for “Nine pots of white clover”, “5” for “10”, “7” for “4, 7, and 14”, “(A7).” for “(A4, A7, and A14).”

dandelions [6] = assay: Example 6 various Fe chelates, dandelion phytotoxicity; type: in vivo, Taraxacum officinale
Experimental: (§6) The following non-limiting examples serve to further describe the invention. Unless otherwise specified, all of the iron solutions were made using the same molar concentration of iron ion as chelating agent. All of the outside tests were done on areas of mixed grass and dandelions that were at least 2 months old. For the greenhouse tests, dandelions were grown in a commercial greenhouse mix, using supplemental lighting and heating. Each plant was grown in a 2¼ inch pot to a minimum diameter of 20 cm. All of the solutions were sprayed onto the plants at a rate of 100 ml/m^2. The ferrous sulfate formulations that were used in examples 1, 2, 8 and 9 contained 1% iron (180 mM), 18 mM EDTA, 1% citric acid and 0.5% urea. In all of the examples, the amount of iron is identified in brackets as the percent iron on a weight basis.
(§7) All plant damage was assessed using a qualitative rating scale from 0 to 9.
This test compared EDG (ethanol diglycine) and EDDS at 0.4% Fe+3 (71.6 mM), with HEDTA 0.2% Fe+3 (35.8 mM). FeEDDS and FeEDG were made with 100% excess chelating agent. FeHEDTA was made with 10% excess chelating agent. The solutions were sprayed onto greenhouse grown dandelions. The plants were resprayed after 7 days.

perennial ryegrass [7] = assay: Example 18 FeHEDTA with Killex, perennial ryegrass; type: in vivo
Experimental: as §1, §2, §3, §5

Park Lawn = assay: Example 22 field test FeIDS and/or FeHEDTA with Killex, Park Lawn; type: in vivo; conditions: A7 = 7 days after treatment
Experimental: as §1, with “basis. […]” for “basis.”
as §3, §4

grass = assay: Example 1 field test of iron chelates, grass damage; type: in vivo; conditions: in vivo
Experimental: as §6, §7
(§8) All of the iron chelates were sprayed once at 0.2% Fe^+3 (35.8 mM), at a volume of 100 ml/m^2 onto 0.5 m^2 areas of mixed grass and dandelions. The spraying of the test was followed by 2 days of rain-free weather. Observations were made 5 days after spraying.

dandelions [8] = assay: Example 1 field test of iron chelates, dandelion damage; type: in vivo, Taraxacum officinale; conditions: sprayed once at 100 ml/m^2, 5 days after spraying
Experimental: as §6, §7, §8

## O=C([O-])CN(CCO)CCN(CC(=O)[O-])CC(=O)[O-].[Fe+3] [FeHEDTA]
Perennial ryegrass [1]
  Phytotoxicity (%) on perennial ryegrass: 0%
[2]; day 0
  Area Covered by Hairy Cat's Ear (%): 65%
  Relative Cat's Ear Area (Start = 100%): 100%
[2]; day 6
  Area Covered by Hairy Cat's Ear (%): 20%
  Relative Cat's Ear Area (Start = 100%): 31%
[2]; day 8
  Area Covered by Hairy Cat's Ear (%): 20%
  Relative Cat's Ear Area (Start = 100%): 31%
[2]; day 14
  Area Covered by Hairy Cat's Ear (%): 5%
[2]; day 15
  Relative Cat's Ear Area (Start = 100%): 8%
[2]; day 18
  Area Covered by Hairy Cat's Ear (%): 0%
  Relative Cat's Ear Area (Start = 100%): 0%
White clover [3]
  Phytotoxicity (%) against white clover: 48%
White clover [4]; A4
  Phytotoxicity (%) against white clover: 27%
White clover [4]; A7
  Phytotoxicity (%) against white clover: 50%
White clover [4]; A14
  Phytotoxicity (%) against white clover: 18%
Perennial ryegrass [5]; listed as FeHEDTA 0.1% Fe
  A7 Phytotoxicity (%) against perennial ryegrass: 1%
Perennial ryegrass [5]; listed as FeHEDTA 0.2% Fe
  A7 Phytotoxicity (%) against perennial ryegrass: 1%
Perennial ryegrass [5]; listed as FeHEDTA 0.4% Fe
  A7 Phytotoxicity (%) against perennial ryegrass: 2%
Dandelions [6]; 7 + 5 days after spraying
  Dead Plants (#/10): 3 #/10
Dandelions [6]; 7 + 5 days after spraying (resprayed after 7 days)
  Plant Damage (0 to 9): 8.1 0 to 9
Dandelions [6]; 7 days after spraying
  Plant Damage (0 to 9): 1.3 0 to 9
Perennial ryegrass [7]; A4
  Phytotoxicity (%) on perennial ryegrass: 2%
Perennial ryegrass [7]; A7
  Phytotoxicity (%) on perennial ryegrass: 1%
Perennial ryegrass [7]; A14
  Phytotoxicity (%) on perennial ryegrass: 2%
Park Lawn
  Phytotoxicity (%) on Park Lawn: 3%
grass
  Grass Damage (0 to 9): 0
Dandelions [8]
  Dandelion Damage (0 to 9): 8.9 0 to 9
